# No end group written: not given here.
# Experiments:
# Format in all cases: cell-based, mouse
# [1] = tested on: C2C12 cells; assay: Protein expression of myodifferentiation and sarcopenia factors (Western blot, immunocytochemistry); details: C2C12 myodifferentiation, peptide-treated vs untreated
# Description: The medium of cultured C2C12 cells was removed and washed once with PBS. The washed cells were treated with 4% formaldehyde (Sigma), fixed for 15 minutes, then washed using PBS, added with 0.2% trypton X-100 (Sigma), and left for 5 minutes. After washing again using PBS, adding 1% normal goat serum, and leaving for 30 minutes, the primary antibody (MYOD, myogenin (MYOG):myosin light chain (MYL2); 1:50) was added to carry out a reaction at 4° C. for 14 hours. The antibodies were removed, washing was performed 3 times with PBS for 10 minutes, and then the cells were left with secondary antibody (Alexa Fluor 488 goat anti-Mouse & rabbit SFX kit t) for 1 hour. After 1 hour, the antibodies were removed, washing was performed with PBS for 10 minutes, the nuclei were stained with 4′,6-diamidino-2-phenylindol (DAPI), and the expression of the proteins was observed using fluorescence microscopy.
# (1) The medium of cultured C2C12 cells was removed, followed by washing with PBS. After adding LIPA buffer and protease inhibitor to the washed cells, the proteins included in the supernatant were collected after centrifugation for 10 minutes at 12000 rpm. 40 μg of the extracted proteins were subjected to electrophoresis in 8 to 10% acrylamide gel and then transferred to a polyvinylidene fluoride (PVDF) membrane (Milipore). These were blocked with 3% skim milk or bovine serum albumin (BSA) at room temperature for 1 hour. Afterwards, primary antibody diluted in 1% skim milk or BSA (Pax7; 1:500, MYOD; 1:500, MYOG; 1:400, MYL2; 1:1000, MYH; 1:500, MSTN; 1:1000, β-actin; 1:1000, MuRF1; 1:400, and Atrogin; 1:1:400) was added and reacted at 4° C. for over 16 hours. After 16 hours, cells were washed three times with TBST (Tris-buffered saline with Tween 20) and reacted with secondary antibody with horseradish peroxidase (HRP) conjugated at room temperature for 1 hour. It was washed three times with TBST and developed after adding Super Signal West Pico Chemiluminescent Substrate.
# [2] = tested on: C2C12 cells; assay: C2C12 cell proliferation (MTT method); details: C2C12, peptide 1000 nM, 1 day, MTT; FIG. 4
# Description: C2C12 cells, a mouse myoblast line, were cultured in Dulbecco's Modified Eagle's Medium (DMEM)+10% fetal bovine serum (FBS)+1% penicillin/streptomycin (P/S). To validate the effect of MIF peptide, C2C12 cells (2×10^3 cells/ml) were placed in a 12 well cell culture dish and attached for 24 hours, and MIF peptide (1000 nM) was treated for 1 day to observe cell proliferation by MTT method. The medium was replaced every 2 days, and the cells were cultured at 37° C.
# To validate cell proliferation, the culture medium of the cells was removed, the cells were washed with DMEM, 500 μl of MTT reagent (0.5 mg/ml) dissolved in phosphate buffered saline (PBS) was added to each well, and the cells were left at 37° C. for 1 hour. The reaction solution was removed, and 1000 μl of DMSO was added to each well. Purple formazan crystals were completely dissolved in DMSO, and the absorbance was measured at 540 nm.
# [3] = tested on: C2C12 cells; assay: mRNA expression of myodifferentiation and sarcopenia factors (real-time PCR); details: C2C12 myodifferentiation, peptide-treated vs untreated
# Description: (§1) After adding 1 ml of TRIzol™ reagent, the cells were crushed using a sonicator. After centrifugation of the crushed sample (12,000 rpm, 10 min, 4° C.), the supernatant was transferred to a new tube, added with 200 μl of chloroform, and left at room temperature for 10 minutes. After 10 minutes, centrifugation (12,000 rpm, 10 min, 4° C.) was performed, yielded a transparent supernatant. Next, 500 μl of isopropanol was added, the mixture was left for 10 minutes, and centrifugation was performed to obtain RNA pellets. After washing by adding 70% ethanol (distilled water treated with ethanol+diethylpyrocarbonate (hereinafter referred to as DEPC)) to the RNA pellets, complete removal and drying were followed. The dried transparent RNA was added with DEPC-treated distilled water and then stored at −80° C. Total RNA volume was measured by nanodrop, and the 18s and 28s bands were detected in 1.2% agarose gel. cDNA was synthesized with 2 μg of total RNA, random hexamer primers, and reverse transcriptase (25° C.: 10 min, 37° C.: 120 min, 85° C.: 5 min).
# (§2) Real-time PCR (RT-PCR) was performed for detecting gene expression. For observation of real-time gene expression, gene expression was analyzed using the Power SYBR Green PCR Master Mix, which includes fluorescent materials of SYBR green (7500 Real-time PCR system). The PCR primer was designed with Primer 3 software (http://frodo.wi.mit.edu) according to the nucleotide sequence secured from NCBI GenBank. PCR was performed 40 times at 95° C. for 10 minutes, again at 95° C. for 33 seconds, at gene primer temperature (tm) for 33 seconds, and at 72° C. for 33 seconds. Gene expression values were analyzed through the analysis of c(t) values obtained through real-time PCR analysis (fold change 2-^ΔΔCt formula). Setting the gene expression value of the untreated cells to 1, the gene expression value of the treated cells was calculated. In the analysis of gene c(t) values, normalization was conducted with the glyceraldehyde-3-phosphate dehydrogenase (GAPDH).
# [4] = tested on: C2C12 cells; assay: Scratch experiment, degree of cell recovery; details: C2C12, 1000 nM peptide, 1 day in proliferation medium
# Description: When the C2C12 cells were 100% grown, cells were scratches on the surface, treated with 1000 nM MIF1 or Ac-MIF1 peptides, and cultured for 1 day, followed by observation for a degree of cell recovery.
# [5] = tested on: 3T3L1 cells; assay: Expression of FMOD, MSTN and lipogenesis-related mRNAs and proteins in 3T3L1 cells; details: 3T3L1, Ac-MIF1 treated vs untreated; FIG. 13C
# Description: as §1, §2
# (2) The medium of cultured 3T3L1 cells was removed and washed with PBS. After adding LIPA buffer and protease inhibitor to the washed cells, the proteins included in the supernatant were collected after centrifugation at 12000 rpm for 10 minutes. 40 μg of the extracted proteins were subjected to electrophoresis in 8 to 10% acrylamide gel and then transferred to a polyvinylidene fluoride (PVDF) membrane (Milipore). These were blocked with 3% skim milk or bovine serum albumin (BSA) at room temperature for 1 hour. Afterwards, primary antibody diluted in 1% skim milk or BSA (MSTN; 1:1000, 13-actin; 1:1000, CD36; 1:500, CD163; 1:500, FMOD; 1:400, and PPARγ; 1:500) was added and reacted at 4° C. for over 16 hours. After 16 hours, they were washed three times with TBST (Tris-buffered saline with Tween 20) and reacted with secondary antibody conjugated with horseradish peroxidase (HRP) at room temperature for 1 hour. It was washed three times with TBST and developed after adding Super Signal West Pico Chemiluminescent Substrate.
substance,measurement,setting,value
"Ac-VDFEAFWDWG [Ac-MIF1, MIF1 with N-terminus acetylated, 10 mer]",ACVRIIB protein expression,[1],reduced
same,Atrogin1 protein expression,[1],reduced
same,MSTN protein expression,[1],reduced
same,MYH protein expression,[1],increased
same,MYOD protein expression,[1],increased
same,MYOG protein expression,[1],increased
same,"cell proliferation, increase compared to cells without peptide treatment",[2],24%
same,MYL2 mRNA expression,[3],increased
same,MYOD mRNA expression,[3],increased
same,"scratch recovery degree, increase compared to untreated cells",[4],28%
same,CD36 expression (mRNA and protein),[5],decreased
same,CD163 expression (mRNA and protein),[5],decreased
same,FMOD expression (mRNA and protein),[5],decreased
same,MSTN expression (mRNA and protein),[5],decreased
same,PPARγ expression (mRNA and protein),[5],decreased
